Test results as given in EP1149104B1, “PYRROLOBENZODIAZEPINE CARBOXYAMIDE VASOPRESSIN AGONISTS” (Wyeth, priority 1999, dated 2000).

Tested on: vasopressin V2 receptors
Assay: Vasopressin V2 agonist effects in normal conscious water-loaded rats
Assay type: in vivo
Conditions: oral dose of 10 mg/Kg, urine collected for four hours, Sprague-Dawley (CD) rats; for Changes in Urinary Osmolality: osmolality changes expressed as percent of control; for Urine Volume (% decrease): percent decrease in urine volume vs. control
Text: Vasopressin V2 Agonist Effects of Test Compounds in Normal Conscious Water-Loaded Rats:
Male or female normotensive Sprague-Dawley rats (Charles River Laboratories, Inc., Kingston, NY) of 350-500 g body weight were supplied with standard rodent diet (Purina Rodent Lab. Chow 5001) and water ad libitum. On the day of test, rats were placed individually into metabolic cages equipped with devices to separate the feces from the urine and containers for collection of urine. A test compound or a reference agent was given at an oral dose of 10 mg/Kg in a volume of 10 mL/Kg. The vehicle used was 20% dimethylsulfoxide (DMSO) in 2.5% preboiled corn starch. Thirty minutes after dosing the test compound, rats were gavaged with water at 30 mL/Kg into the stomach using a feeding needle. During the test, rats were not provided with water or food. Urine was collected for four hours after dosing of the test compound. At the end of four hours, urine volume was measured. Urinary osmolality was determined using a Fiske One-Ten Osmometer (Fiske Associates, Norwood, MA, 02062) or an Advanced CRYOMATIC Osmometer, Model 3C2 (Advanced Instruments, Norwood, MA). Determinations of Na^+, K^+- and Cl^- ion were carried out using ion specific electrodes in a Beckman SYNCHRON EL-ISE Electrolyte System analyzer. The urinary osmolality should increase proportionally. In the screening test, two rats were used for each compound. If the difference in the urine volume of the two rats was greater than 50%, a third rat was used.

SMILES | Changes in Urinary Osmolality | Urine Volume (% decrease)
Cn1ccc2cc(C(=O)N3Cc4cccn4Cc4ccccc43)ccc21 [Example 1, (5H-10,11-Dihydro-pyrrolo [2,1-c][1,4]benzodiazepin-10-yl)-(1-methyl-1H-indol-5-yl)-methanone] | 174% of control | 66
O=C(c1ccc2c(c1)OCO2)N1Cc2cccn2Cc2ccccc21 [Example 2, Benzo[1,3]dioxol-5-yl-(5H-10,11-dihydro-pyrrolo [2,1-c][1-4]benzodiazepin-10-yl)-methanone] | 41% of control | 23
O=C(c1ccc2c(c1)CCO2)N1Cc2cccn2Cc2ccccc21 [Example 3, (2,3-Dihydro-benzofuran-5-yl)-(5H-10,11-dihydro-pyrrolo[2,1-c][1,4]benzodiazepin-10-yl)-methanone] | 10% of control | 32
O=C(c1ccc2ncsc2c1)N1Cc2cccn2Cc2ccccc21 [Example 4, (Benzothiazol-6-yl)-(5H-10,11-dihydro-pyrrolo[2,1-c][1,4]benzodiazepin-10-yl)-methanone] | 3% of control | 19
